Assay results published in PubChem BioAssay (NCI).
≈ marks a conversion by molar mass, not a printed value. Where “and” joins values, the source holds several entries; their conditions need not be identical. Equal entries are not always repeated.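 Interpolation was linear, between the two tested concentrations surrounding the appropriate level; five concentrations were tested over 48 hours in 96-well plates. GI50 marks 50% less growth. TGI: concentration producing complete growth inhibition.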

What was measured:
Experiment in all cases: NCI tumour cell line growth inhibition, 48 h
RXF-631 renal = system: RXF-631 renal
P388 leukemia = system: P388 leukemia
SN12K1 renal = system: SN12K1 renal
P388/ADR leukemia = system: P388/ADR leukemia

SMILES | TGI (RXF-631 renal) | also measured
C/C=C(/CCC1NCCC2c3ccccc3NC12)[Si](C)(C)C (stereo not drawn) | 23.4 µM | 
CN(C)CCC(CCN(C)C)=NOC(=O)c1ccccc1 | > 100 µM | 
NC(=O)c1ncn(CCN2CCN(C(=O)NCCCCCCNC(=O)N3CCN(CCn4cnc(C(N)=O)c4N)CC3)CC2)c1N | > 100 µM | 
Cc1cc(Cl)ccc1NC(=O)CCCC(=O)C1CCC/C1=N\NC(=O)CC#N (stereo not drawn) | > 100 µM | 
Cn1c(=O)c2ccc(-c3ccc(Br)cc3)nc2n(C)c1=O | > 100 µM | 
COC(C(=O)C(O)C(C)O)C1Cc2cc3cc(OC4CC(OC5CC(O)C(O)C(C)O5)C(O)C(C)O4)c(C)c(O)c3c(O)c2C(=O)C1OC1CC(OC2CC(O)C(OC3CC(C)(O)C(O)C(C)O3)C(C)O2)C(O)C(C)O1 (stereo not drawn) |  | GI50 (P388 leukemia): 0.056 ng/mL (≈ 0.0516 nM); TGI (P388 leukemia): 0.798 ng/mL (≈ 0.735 nM); GI50 (SN12K1 renal): 0.0304 ng/mL (≈ 0.028 nM); TGI (SN12K1 renal): 150 ng/mL; GI50 (P388/ADR leukemia): 1.32 ng/mL (≈ 1.22 nM); TGI (P388/ADR leukemia): 20.4 ng/mL (≈ 18.8 nM)
Cc1cc(=O)n2c3c(c4c(cc13)c(CO)cc(=O)n4C)OC2 | 38.9 µM | 
CC1(c2cccc(N)c2)C2C(=O)NC(=O)C1C(=O)NC2=O (stereo not drawn) | > 100 µM | 
CSc1nc2c(nc(N)n2C2OC(COC(C)=O)C(OC(C)=O)C(OC(C)=O)C2OC(C)=O)c(=O)n1C (stereo not drawn) | > 100 µM | 
Cn1c2ccccc2c(=O)c2c(O)cc3c(c21)CC(C1(C)CO1)O3 (stereo not drawn) | > 33.6 µM | 
C=C1COC(O)(C2OCOC(C3CC(=O)NC(=O)C3)C2O)C1C (stereo not drawn) | 0.0249 µM and 0.0329 µM | 
COC(=O)NN1C(C)=C(C(=O)OC)C2(C#N)C(C(=O)OC)=C(C)N(NC(=O)OC)C12N (stereo not drawn) | > 100 µM | 
C/C(=N\NC(=S)N1CCN(C2CCCCCC2)CC1)c1ccccn1 |  | TGI (SN12K1 renal): 1.56 µM
